PMC8615111, “Phenolic Thiazoles with Antioxidant and Antiradical Activity. Synthesis, In Vitro Evaluation, Toxicity, Electrochemical Behavior, Quantum Studies and Antimicrobial Screening” (Antioxidants, 2021)

How the values were obtained:
[1] = DPPH˙ radical scavenging by cyclic voltammetry; conditions: for Eox (V): 2nd Eox
Method: (§1) The antioxidant properties were evaluated in terms of their activity against some free radicals, and other compounds reported in the literature, relevant for this purpose, such as: • ferric ions (Fe^3+)—used to test the reduction of the antioxidant character of the compounds; • DPPH˙ free radical– used to test the scavenging effect of the compounds on this radical; • hydrogen peroxide (H2O2)—used to test the scavenging effect of the synthesized molecules on this compound; • 2,2,6,6-tetramethylpiperidinyl-1-oxy (TEMPO)—used to test the scavenging effect of the synthesized molecules on this compound.
The radical scavenging properties of the novel compounds and the other antioxidants were determined using a stock DPPH˙ radical solution prepared in absolute ethanol. The antioxidant samples were mixed with DPPH˙ solution and HClO4 electrolyte and incubated in the dark for 30 min. The remaining redox activity of DPPH was measured by cycling the potential between −0.7 V and 1.2 V, with a scan rate of 0.1 V/s.
The nitrogen-centered 2-2-diphenyl-1-picrylhydrazyl radical (DPPH˙) based assay is one of the most commonly employed method to evaluate the ability of a compound to scavenge or neutralize free radicals based on the reduction of the radical.
Taking into account the redox activity of DPPH˙, its diminution by an antioxidant can also be followed by CV, which is expected to show changes in the voltammetric peaks. Figure A5 reports the electrochemical study of initial electrooxidation of DPPH˙ and the novel compounds compared to remaining peaks after their incubation for 30 min. The decrease of all the peaks after mixture incubation indicates the partial consumption of DPPH˙.

S. pyogenes ATCC 19615 = test: Antimicrobial activity, modified microdilution; assay type: cell-based; conditions: Streptococcus pyogenes, ATCC19615
Method: (§2) For evaluating the antimicrobial activity of the compounds, […] aerobic microbial strains were used: S. aureus ATCC 25923, S. pyogenes ATCC 19615, P. aeruginosa ATCC 27853, S. enterica ISM 83/37, S. typhimurium ATCC 14028, E. coli ATCC 8739, E. coli ATCC 25922, and C. albicans ATCC 102310 obtained from Food Biotechnology Laboratory, Life Sciences Institute, University of Agricultural Sciences, and Veterinary Medicine Cluj Napoca, where the experiment was performed. The antimicrobial activity of the compounds was determined using a modified microdilution technique, and the followed protocol was previously reported.
(§3) The antimicrobial activity of the final compounds, against seven aerobic microbial strains (S. aureus ATCC 25923, S. pyogenes ATCC 19615, P. aeruginosa ATCC 27853, S. enterica ISM 83/37, S. typhimurium ATCC 14028, E. coli ATCC 8739, E. coli ATCC 25922), and a fungal strain (C. albicans ATCC 102310), was determined using a modified microdilution technique.
(§4) The results of the antimicrobial activity evaluation of the compounds, in comparison to norfloxacin and chloramphenicol used as standard antibiotics and fluconazole used as reference antifungal, are depicted in Table 10.

E. coli ATCC 8739 = test: Antimicrobial activity, modified microdilution; assay type: cell-based; conditions: Escherichia coli, ATCC8739
Method: as §2, §3, §4

[2] = tested on: S. typhimurium ATCC 14028; test: Antimicrobial activity, modified microdilution; assay type: cell-based; conditions: Salmonella enterica
Method: as §2, §3, §4

P. aeruginosa ATCC 27853 = test: Antimicrobial activity, modified microdilution; assay type: cell-based; conditions: Pseudomonas aeruginosa, ATCC27853
Method: as §2, §3, §4

S. aureus ATCC 25923 = test: Antimicrobial activity, modified microdilution; assay type: cell-based; conditions: Staphylococcus aureus, ATCC25923
Method: as §2, §3, §4

S. enterica ISM 83/37 = test: Antimicrobial activity, modified microdilution; assay type: cell-based; conditions: Salmonella enterica, ISM83/37
Method: as §2, §3, §4

E. coli ATCC 25922 = test: Antimicrobial activity, modified microdilution; assay type: cell-based; conditions: Escherichia coli, ATCC25922
Method: as §2, §3, §4

[3] = Ferric ions (Fe^3+) reducing antioxidant power by cyclic voltammetry; conditions: for Ered (V): 1st Ered; for Ired (μA): 1st Ired
Method: The evaluated compounds’ stock solutions used were prepared at a concentration of 5 mM. To test their redox properties, dilutions of 0.5 mM and 2 mM were prepared in 0.1 M HClO4 electrolyte (pH = 1.2). Screen-printed electrodes (SPEs; Metrohm DropSens, Oviedo, Spain) (planar electrodes) with graphite and gold working electrodes were used. Cyclic voltammetry (CV) and differential pulse voltammetry (DPV) were the electrochemical methods applied. The experimental conditions for each test are mentioned near the corresponding data (Appendix A).
as §1
This method is based on the evaluation of the influence of the compound measured by the direct reduction of Fe[(CN)6]^3− to […]. This assay is based on the reduction of Fe^3+ to Fe^2+ due to the action of antioxidants. Based on the electrochemical behavior of the studied compounds, the interaction of Fe^3+ was followed by cyclic voltammetry (CV) via the possible changes of redox peaks characteristic for Fe^3+/Fe^2+ transition after the interaction with antioxidants (if any).
From the voltammogram of potassium ferricyanide it can be observed that the one-electron transfer process Fe^3+/Fe^2+ occurs at 0.247 V/ 0.150 V in acidic media (red) (Figure A1; Table A1).
Each compound presents its characteristic peaks (blue line in each figure).

[4] = TEMPO scavenging by differential pulse voltammetry; conditions: 2 mM TEMPO, one hour incubation, 0.1 M HClO4, DPV
Method: as §1
TEMPO (2,2,6,6-tetramethylpiperidine-N-oxyl) is a stable organic nitroxide radical that has been reported to scavenge carbon-centered radicals.
Differential pulse voltammetry (DPV) was then applied in order to evaluate the antioxidant effectiveness of the novel compounds through their ability to scavenge the free radical species.

[5] = compound + DPPH, 30 min, 1st Ered
[6] = compound + DPPH, 30 min, 1st Ired
[7] = compound alone, 2nd Ered column
[8] = compound 0.5 mM + Fe^3+/Fe^2+ (0.5 mM potassium ferricyanide), 1st Eox column
[9] = compound 0.5 mM + Fe^3+/Fe^2+ (0.5 mM potassium ferricyanide), 1st Iox column
[10] = compound + Fe^3+/Fe^2+, 2nd Eox
[11] = compound + Fe^3+/Fe^2+, 2nd Iox column
[12] = compound + Fe^3+/Fe^2+, 5th Eox
[13] = compound + Fe^3+/Fe^2+, 5th Iox column
[14] = compound alone 0.5 mM in 0.1 M HClO4, 2nd Eox
[15] = compound alone 0.5 mM in 0.1 M HClO4, 2nd Iox column
[16] = compound alone 0.5 mM in 0.1 M HClO4, 5th Eox
[17] = compound alone 0.5 mM in 0.1 M HClO4, 5th Iox column

Structure (SMILES)	Iox (μA) ([1]; compound + DPPH, 30 min)	Ered (V) [1, 5] [V]	Ired (μA) [1, 6] [μA]	Eox (V) ([1]; compound + DPPH, 30 min)	Iox (μA) ([1]; compound alone)	Eox (V) ([1]; compound alone)	Ered (V) [1, 7] [V]	Ired (μA) ([1]; compound alone, 2nd Ired)	MIC (S. pyogenes ATCC 19615) [µg/mL]	MIC (E. coli ATCC 8739) [µg/mL]	MIC [2] [µg/mL]	MIC (P. aeruginosa ATCC 27853) [µg/mL]	MIC (S. aureus ATCC 25923) [µg/mL]	MIC (S. enterica ISM 83/37) [µg/mL]	MIC (E. coli ATCC 25922) [µg/mL]	Eox (V) [3, 8] [V]	Iox (μA) [3, 9] [μA]	Ered (V) ([3]; compound + Fe^3+/Fe^2+)	Ired (μA) ([3]; compound + Fe^3+/Fe^2+)	Eox (V) [3, 10] [V]	also measured
Br.NC(=O)c1cc(-c2csc(N/N=C/c3ccc(O)cc3O)n2)ccc1O [Compound 7b, (E)-1-(4-(3-carbamoyl-4-hydroxyphenyl)thiazol-2-yl)-2-(2,4-dihydroxybenzylidene) hydrazin-1-ium bromide]	9.076	0.291	−7.43	0.359	15.65	0.342	0.276	−2.54	> 100	> 100	> 100	15.6	> 100	> 100	> 100	0.205	1.39	0.161	−6.8	0.305	Iox (μA) [3, 11]: 6.08 μA; Eox (V) [3, 12]: 0.926 V; Iox (μA) [3, 13]: 6.34 μA; Eox (V) [3, 14]: 0.347 V; Iox (μA) [3, 15]: 2.07 μA; Eox (V) [3, 16]: 1.065 V; Iox (μA) [3, 17]: 2.64 μA; oxidation signal for TEMPO after incubation with the compound [4]: does not decrease
Br.Oc1ccc(/C=N/Nc2nc(-c3ccccc3)cs2)c(O)c1 [Compound 6b, (E)-2-(2,4-dihydroxybenzylidene)-1-(4-phenylthiazol-2-yl)hydrazin-1-ium bromide]	43.4	0.302	−1.09	0.391	47.3	0.391	0.239	−7.045	> 100	> 100	> 100	> 100	> 100	> 100	> 100	0.203	2.48	0.149	−8.26	0.325	Ered (V) ([1]; compound + DPPH, 30 min, 2nd Ered column): 0.425 V; Ired (μA) ([1]; compound + DPPH, 30 min, 2nd Ired): −1.23 μA; Iox (μA) [3, 11]: 44.78 μA; Eox (V) [3, 12]: 0.879 V; Iox (μA) [3, 13]: 21.84 μA; Eox (V) [3, 14]: 0.386 V; Iox (μA) [3, 15]: 37.55 μA; Eox (V) [3, 16]: 0.894 V; Iox (μA) [3, 17]: 8.86 μA; oxidation signal for TEMPO after incubation with the compound [4]: does not decrease
